{"source": "paper PMC8526855", "about": "“Gambogenic Acid Induces Endoplasmic Reticulum Stress in Colorectal Cancer via the Aurora A Pathway” (Frontiers in Cell and Developmental Biology, 2021)", "target": "T1, Aurora A (Homo sapiens, UniProt O14965)", "T1 construct": "gene AURKA", "T1 sequence (O14965 1-403)": "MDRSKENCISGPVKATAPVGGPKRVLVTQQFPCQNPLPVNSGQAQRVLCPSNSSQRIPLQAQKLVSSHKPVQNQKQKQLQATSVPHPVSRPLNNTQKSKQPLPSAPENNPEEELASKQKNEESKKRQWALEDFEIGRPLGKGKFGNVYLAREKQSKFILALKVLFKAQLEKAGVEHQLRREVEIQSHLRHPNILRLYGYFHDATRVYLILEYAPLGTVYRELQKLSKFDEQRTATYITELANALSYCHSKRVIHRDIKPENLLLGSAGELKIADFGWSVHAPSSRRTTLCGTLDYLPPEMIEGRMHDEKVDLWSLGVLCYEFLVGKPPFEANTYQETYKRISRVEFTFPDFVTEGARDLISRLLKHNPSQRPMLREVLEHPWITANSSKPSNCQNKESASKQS", "assay": "microfluidic mobility shift kinase assay; also cellular thermal shift assay (Aurora A levels reduced with GNA at […]°C)", "assay_type": "biochemical", "note": "pIC50: −log10 of the molar value.", "data": [{"smiles": "CC(C)=CCC/C(C)=C/Cc1c(O)c(CC=C(C)C)c2c(c1O)C(=O)C1=C[C@@H]3C[C@H]4C(C)(C)O[C@@](C/C=C(/C)C(=O)O)(C3=O)[C@@]14O2", "note": "[GNA, gambogenic acid]", "values": [{"measurement": "pIC50", "value": 5.85}]}]}
